Assay in all cases: NCI anticancer screen, dose series, 48 h
In test [1] the test system is SN12C.
Test [2] has as its system OVCAR-5.
The subject of test [3] is HCT-15.
In test [4] the test system is SK-OV-3.
Test [5] relates to 786-0.
The test system of test [6] is U-251.
Test [7] concerns SF-295.
In test [8] the test system is BT-549.
Test [9] deals with LOX IMVI.
The test system of test [10] is SW-620.
Test [11] has as its system NCI-H226.
Test [12] concerns TK-10.
Test [13] deals with OVCAR-8.
The test system of test [14] is UACC-62.
For test [15], the system named is HOP-92.
Test [16] has as its system M14.
Test [17] relates to MOLT-4.
Test [18] has as its system MDA-MB-435.
Test [19] deals with HCC 2998.
Test [20] deals with MCF7.

The results in this text go back to ChEMBL document CHEMBL1201862, “PubChem BioAssay data set” (2004).

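Cultured in 96-well plates, cells were exposed to test compound for 48 hours across five concentrations. GI50 marks 50% less growth.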 Active and inactive are the calls of the source. Cut-off read from the data, not from the text of the source: active = GI50 up to about 1.1 µM and inactive = higher.

`CN(C)CCCN1c2ccc3ccccc3c2Sc2cccc(Cl)c21`: the GI50 was 6.19 µM (inactive) in test [1]; 5.13 µM (inactive) in test [2]; 4.33 µM in test [3]; 11.4 µM (inactive) in [4]; 2.99 µM (inactive) in test [5]; 2.18 µM (inactive) in test [6]. Also, the GI50 was 3.91 µM (inactive) in test [7]; 15.1 µM (inactive) in [8]; 1.97 µM (inactive) in test [9]; 2.04 µM (inactive) in test [10]; 7.11 µM (inactive) in test [11]; 2.52 µM (inactive) in [12]. The GI50 in test [13] was 4.33 µM (inactive); in test [14], 2 µM (inactive); in [15], 1.51 µM (inactive); in test [16] it was 1.89 µM (inactive); in [17], 2.14 µM (inactive); in [18], 1.98 µM (inactive). For the same molecule, the GI50 in test [19] was 1.61 µM (inactive).

For the molecule `CN1C(C(=O)Nc2ccccn2)=C(O)c2ccccc2S1(=O)=O` [PIROXICAM], the GI50 in test [1] was > 100 µM (inactive); in [2], > 100 µM (inactive); in test [20] it was > 100 µM (inactive); in test [3], more than 100 µM; in test [4] it was > 100 µM (inactive); in [5], > 100 µM (inactive). Further, the GI50 is > 100 µM (inactive) in test [6]; > 100 µM (inactive) in [7]; 15.3 µM (inactive) in test [8]; > 100 µM (inactive) in test [9]; > 100 µM (inactive) in test [10]; > 100 µM (inactive) in test [11]. In addition, the GI50 in test [12], in [13], in [14], in test [16], in test [17] and in [18] was > 100 µM (inactive) throughout.

Regarding `CCOC(=O)CNC(=O)C(CSCC1C(=O)Nc2ccccc21)NC(=O)CCC(N)C(=O)OCC` (stereo not given), the GI50 in [1] was 1.52 µM (inactive); in [2], 1.84 µM (inactive); in test [20], 1.07 µM (active); in test [3], 1.04 µM; in test [5] it was 1.63 µM (inactive); in [6] it was 1.31 µM (inactive). The GI50 in test [7] is 2.77 µM (inactive); in test [8] it was 2.44 µM (inactive); in test [9] it was 0.46 µM (active); in [10] it was 1.19 µM (inactive); in test [11], 1.93 µM (inactive); in test [12] it was 1.62 µM (inactive). For the same molecule, the GI50 in test [13] is 2.81 µM (inactive); in test [14], 1.57 µM (inactive); in test [15] it was 1.25 µM (inactive); in test [16], 1.84 µM (inactive); in test [18], 1.32 µM (inactive).

In the case of `O=C(O)[C@H]1CCCN1CP(=O)(O)CN1CCC[C@@H]1C(=O)O`, the GI50 in test [1] is > 100 µM (inactive); in test [2], > 100 µM (inactive); in test [20], > 100 µM (inactive); in [3] it was more than 100 µM; in test [4] it was > 100 µM (inactive); in test [5], > 100 µM (inactive). Further, the GI50 in [6], in test [7], in test [8], in [9], in [10] and in [13] was > 100 µM (inactive) in each case. Also, the GI50 in test [14], in [15], in [16], in test [17] and in test [18] was > 100 µM (inactive) in each case.

As to `Cc1ccc(N2C(=O)C3c4[nH]c5ccc(C)cc5c4C4CCC(C(C)(C)C)CC4C3C2=O)cc1` (stereo not given), the GI50 in [1] was 12.6 µM (inactive); in test [2], 11.3 µM (inactive); in test [20], 11.3 µM (inactive); in test [3], 49.8 µM; in test [5], 4.9 µM (inactive); in test [6], 10.9 µM (inactive). Moreover, the GI50 in [7] is 15.2 µM (inactive); in test [8] it was 26.9 µM (inactive); in test [9], 15 µM (inactive); in [10], 12.1 µM (inactive); in [11], 21.6 µM (inactive); in test [12], 16.5 µM (inactive). In addition, the GI50 in test [13] is 9.62 µM (inactive); in test [14] it was 16.2 µM (inactive); in [15] it was 16.1 µM (inactive); in test [16], 31 µM (inactive); in test [17], 2.48 µM (inactive); in test [18], 17.7 µM (inactive).

Turning to `Nc1cc(CO)cc(Nc2c3ccccc3nc3ccccc23)c1`, the GI50 in [1] is 18.9 µM (inactive); in [2] it was 16.7 µM (inactive); in [20] it was 15.5 µM (inactive); in [3], 17.6 µM; in [4] it was 16 µM (inactive); in test [5] it was 16.7 µM (inactive). In addition, the GI50 in [6] was 15.1 µM (inactive); in [7] it was 10.9 µM (inactive); in [8], 14.5 µM (inactive); in test [9], 16.7 µM (inactive); in [10] it was 12.8 µM (inactive); in [11], 18.2 µM (inactive). In addition, the GI50 is 16 µM (inactive) in [12]; 15.9 µM (inactive) in test [13]; 17.4 µM (inactive) in test [14]; 17.3 µM (inactive) in [16]; 4.5 µM (inactive) in [17]; 17 µM (inactive) in test [18].

With `CCOC(=O)c1cc(-c2ccc(OC)cc2)c([N+](=O)[O-])n1C`, the GI50 in test [1] was > 10 µM (inactive); in [2], > 10 µM (inactive); in test [3], more than 10 µM; in test [5] it was > 10 µM (inactive); in [6], > 10 µM (inactive); in test [7], > 10 µM (inactive). The GI50 in test [8], in test [11], in test [13], in test [14], in test [15] and in test [16] was > 10 µM (inactive) throughout. Further, the GI50 in test [17], in [18] and in [19] was > 10 µM (inactive) each time.

For `CCc1n[nH]c(=O)n1/N=C(\C)c1ccccc1`, the GI50 is > 100 µM (inactive) in test [1]; > 100 µM (inactive) in [2]; > 100 µM (inactive) in [20]; more than 100 µM in [3]; > 100 µM (inactive) in [5]; > 100 µM (inactive) in test [6]. The GI50 in test [7], in [8], in test [9], in test [10], in [11] and in [12] was > 100 µM (inactive) in each case. Further, the GI50 in test [13], in test [14], in test [16], in test [17] and in test [18] was > 100 µM (inactive) in each case.

For the molecule `COc1ccc(NC(=O)CC(=O)NN)cc1`, the GI50 in [1] is > 100 µM (inactive); in test [2], > 100 µM (inactive); in [20], > 100 µM (inactive); in test [3] it was more than 100 µM; in [4] it was > 100 µM (inactive); in test [5], > 100 µM (inactive). Also, the GI50 in test [6], in test [7], in [8], in test [9], in test [10] and in [11] was > 100 µM (inactive) each time. The GI50 is > 100 µM (inactive) in [12]; > 100 µM (inactive) in test [13]; > 100 µM (inactive) in [14]; 64 µM (inactive) in test [15]; > 100 µM (inactive) in test [17]; > 100 µM (inactive) in [18].

For the molecule `Nc1nc(Cc2ccccc2)nc(Cc2ccccc2)c1-c1ccccc1`, the GI50 was 28.2 µM (inactive) in [1]; 29.1 µM (inactive) in test [2]; 21.5 µM in test [3]; 22.9 µM (inactive) in test [5]; 17.9 µM (inactive) in [6]; 25.6 µM (inactive) in test [7]. The GI50 is 20.6 µM (inactive) in test [8]; 21.3 µM (inactive) in test [9]; 33.9 µM (inactive) in test [10]; 19.2 µM (inactive) in test [11]; 56.9 µM (inactive) in [12]; 28.7 µM (inactive) in test [13]. The GI50 is 18 µM (inactive) in [14]; 11.5 µM (inactive) in test [15]; 30.3 µM (inactive) in test [16]; 11.2 µM (inactive) in [17]; 22.9 µM (inactive) in test [18]; 46.6 µM (inactive) in test [19].

Consider `O=C(O)c1nc2cc(C(F)(F)F)ccc2nc1Nc1ccc(Cl)c(Cl)c1`, for which the GI50 in test [2] was 17.7 µM (inactive); in test [20], 23.8 µM (inactive); in [3], 12.3 µM; in test [4] it was 16.7 µM (inactive); in test [5] it was 15.9 µM (inactive); in [6], 10.3 µM (inactive). Besides, the GI50 is 10.3 µM (inactive) in test [7]; 11.1 µM (inactive) in test [8]; 17.3 µM (inactive) in test [9]; 10.8 µM (inactive) in test [10]; 15.8 µM (inactive) in test [11]; 14.2 µM (inactive) in [12]. The GI50 in test [13] was 12.6 µM (inactive); in test [14], 12.3 µM (inactive); in test [15], 11 µM (inactive); in [16], 13 µM (inactive); in test [18], 5.12 µM (inactive).

As to `O=C(O)C1(Nc2ccc(Cl)cc2)CCCC1`, the GI50 in test [1] was > 100 µM (inactive); in test [2], > 100 µM (inactive); in [20], > 100 µM (inactive); in [3], 11.5 µM; in [4], > 100 µM (inactive); in test [5] it was > 100 µM (inactive). Also, the GI50 in [6] is > 100 µM (inactive); in test [7] it was 97.9 µM (inactive); in [8], > 100 µM (inactive); in test [9], > 100 µM (inactive); in [10], > 100 µM (inactive); in [11], > 100 µM (inactive). The GI50 in [12], in [13], in [14], in [15], in test [16] and in test [18] was > 100 µM (inactive) each time.
